Assay [1] concerns A2780 cells. The assay can be described thus: In-vitro cell proliferation assay (SRB), A2780 cells.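 Further: viable cell number read as SRB absorbance, background from media-only wells subtracted, IC50 interpolated from percent inhibition at two bracketing compound concentrations.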 Type of assay: cell-based. As to conditions: Homo sapiens, A2780, 72 h, A2780 cells, 72 hours, SRB; read-out: A2780 IC50.
In assay [2] the test system is A2780 cells. The assay can be described thus: A2780 xenograft study in mice. Type of assay: in vivo, C.B-17-Igh-1b-Prkdc^scid mice. The conditions noted are these: female SCID mice, s.c. A2780 tumors, p.o. BID for 5 or 10 days, dose selected from MTD study. As for the experimental part:
C.B-17-Igh-1b-Prkdc^scid mice (female) were injected s.c. with 5×10^6 A2780 cells (NCI) in the left flank. 10-12 days later when tumors reached 100-200 mm3 in size, mice were randomized into treatment groups of 8 mice per group including vehicle control and reference standard groups. The compounds were formulated in 60:30:10 PEG-400:D5W: Ethanol and administered p.o., at the dose volume of 10 ml/kg BID for a duration of 5 or 10 days. The dose used for efficacy was selected from the MTD (Maximum Tolerated Dose) study. Mice were weighed and tumors measured using vernier calipers every alternate day. Tumor volume was calculated according to the formula (length×width^2)/2. All animal work was approved by the Institutional Animal Care and Use Committee of Biological Resource Centre, Singapore.

The next assay has as its target NAMPT (Homo sapiens (Human), UniProt P43490). Kind of assay: NAMPT biochemical inhibition assay (NMN quantified by mass spectrometry). As to conditions: NAMPT biochemical inhibition; read-out: Biochem IC50.

SMILES strings stand for the structures. Entries after “also recorded” stand apart in the source; their conditions may differ.

Sequence of NAMPT (P43490 whole entry): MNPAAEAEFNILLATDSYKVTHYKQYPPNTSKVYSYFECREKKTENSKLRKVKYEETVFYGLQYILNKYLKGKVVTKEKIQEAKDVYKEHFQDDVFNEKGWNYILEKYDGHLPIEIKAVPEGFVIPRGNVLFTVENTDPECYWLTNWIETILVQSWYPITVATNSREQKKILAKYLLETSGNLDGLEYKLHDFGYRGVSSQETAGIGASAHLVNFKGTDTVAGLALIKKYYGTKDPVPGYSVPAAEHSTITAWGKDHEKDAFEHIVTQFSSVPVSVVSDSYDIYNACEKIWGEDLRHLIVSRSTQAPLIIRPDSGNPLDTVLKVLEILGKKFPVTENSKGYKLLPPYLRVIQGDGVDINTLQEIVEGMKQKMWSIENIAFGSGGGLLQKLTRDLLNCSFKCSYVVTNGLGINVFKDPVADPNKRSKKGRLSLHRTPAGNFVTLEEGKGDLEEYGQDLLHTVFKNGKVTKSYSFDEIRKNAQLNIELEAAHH

Turning to `O=C(NCc1cccnc1)Nc1ccc(S(=O)(=O)N2CC3CCC(C2)O3)cc1` [1-(4-{8-oxa-3-azabicyclo[3.2.1]octane-3-sulfonyl}phenyl)-3-(pyridin-3-ylmethyl)urea], in the assay with A2780 cells [1], the IC50 (in general, the concentration needed to halve the response being measured) amounted to 29 nM. Further, the “effect on tumor growth in A2780 xenograft” value (“effect on tumor growth” below) in the assay with A2780 cells [2] is given as “tumor regression”.

Turning to `O=C(NCc1cccnc1)Nc1ccc(S(=O)(=O)N[C@H]2C[C@@H]3CC[C@H]2C3)cc1` [1-(4-{[(1S,2S,4R)-bicyclo[2.2.1]heptan-2-yl]sulfamoyl}phenyl)-3-(pyridin-3-ylmethyl)urea], the IC50 at NAMPT was found to be 7 nM; in the assay on A2780 cells [1], 46 nM. In addition, in the assay on A2780 cells [2], the “effect on tumor growth” value was “delayed tumor growth”.

Regarding `O=C(NCc1cccnc1)Nc1ccc(S(=O)(=O)c2ccccc2OC(F)(F)F)cc1` [1-(pyridin-3-ylmethyl)-3-(4-{[2-(trifluoromethoxy)benzene]sulfonyl}phenyl)urea], the results for the IC50 on NAMPT and with A2780 cells [1] were 1 nM and 3 nM, respectively. The “effect on tumor growth” value in the assay on A2780 cells [2] is listed as “tumor regression”.

Consider `O=C(NCc1ccc2nccn2c1)Nc1ccc(S(=O)(=O)c2ccccc2)cc1` [1-[4-(benzenesulfonyl)phenyl]-3-{imidazo[1,2-a]pyridin-6-ylmethyl}urea], for which the IC50 in the assay on A2780 cells [1] is 33 nM. Further, the “effect on tumor growth” value in the assay on A2780 cells [2] is “delayed tumor growth”.

As to `O=C(NCc1cccnc1)Nc1ccc(S(=O)(=O)N2CCC(N3CCOCC3)CC2)cc1` [1-{4-[4-(morpholin-4-yl)piperidine-1-sulfonyl]phenyl}-3-(pyridin-3-ylmethyl)urea], the half-inhibitory concentration (IC50) turned out to be 9 nM on NAMPT and 13 nM in the assay on A2780 cells [1]. Besides, the “effect on tumor growth” value in the assay with A2780 cells [2] was “delayed tumor growth”.

Regarding `C[C@@H]1CN(S(=O)(=O)c2ccc(NC(=O)NCc3ccc4nccn4c3)cc2)C[C@H](C)O1` [1-{4-[(2R,6S)-2,6-dimethylmorpholine-4-sulfonyl]phenyl}-3-{imidazo[1,2-a]pyridin-6-ylmethyl}urea], the half-maximal inhibitory concentration (IC50) was 8 nM on NAMPT and 25 nM in the assay with A2780 cells [1]. For the same molecule, in the assay on A2780 cells [2], the “effect on tumor growth” value was “delayed tumor growth”.

As to `O=C(NCc1ccc2nccn2c1)Nc1ccc(S(=O)(=O)c2ccc(F)cc2)cc1` [1-{4-[(4-fluorobenzene)sulfonyl]phenyl}-3-{imidazo[1,2-a]pyridin-6-ylmethyl}urea], the IC50 on NAMPT worked out at 3 nM; with A2780 cells [1], 29 nM. In addition, the “effect on tumor growth” value in the assay with A2780 cells [2] was “tumor stasis; also recorded: delayed tumor growth”.

For the molecule `O=C(NCc1cccnc1)Nc1ccc(S(=O)(=O)Nc2cccc3ccccc23)cc1` [1-{4-[(naphthalen-1-yl)sulfamoyl]phenyl}-3-(pyridin-3-ylmethyl)urea], the IC50 on NAMPT was determined as 1 nM; in the assay on A2780 cells [1], 19 nM. Besides, in the assay on A2780 cells [2], the “effect on tumor growth” value is on record as “delayed tumor growth”.

As for `COc1ccc(C(F)(F)F)cc1NS(=O)(=O)c1ccc(NC(=O)NCc2cccnc2)cc1` [3-(4-{[2-methoxy-5-(trifluoromethyl)phenyl]sulfamoyl}phenyl)-1-(pyridin-3-ylmethyl)urea], the figures for the IC50 at NAMPT and in the assay on A2780 cells [1] were 0.1 nM and 2 nM, respectively. Moreover, in the assay on A2780 cells [2], the “effect on tumor growth” value is “delayed tumor growth”.

Regarding `O=C(NCc1cccnc1)Nc1ccc(S(=O)(=O)c2ccccc2)cc1` [3-[4-(benzenesulfonyl)phenyl]-1-(pyridin-3-ylmethyl)urea], the “effect on tumor growth” value in the assay on A2780 cells [2] was “tumor stasis”.

Regarding `Cc1ccc(Cl)c(NS(=O)(=O)c2ccc(NC(=O)NCc3cccnc3)cc2)c1` [3-{4-[(2-chloro-5-methylphenyl)sulfamoyl]phenyl}-1-(pyridin-3-ylmethyl)urea], the results for the IC50 on NAMPT and in the assay with A2780 cells [1] were 0.3 nM and 9 nM, respectively. Moreover, the “effect on tumor growth” value in the assay with A2780 cells [2] is given as “delayed tumor growth”.

Consider `C[C@@H]1CN(S(=O)(=O)c2ccc(NC(=O)NCc3cccnc3)cc2)C[C@H](C)O1` [3-{4-[(2R,6S)-2,6-dimethylmorpholine-4-sulfonyl]phenyl}-1-(pyridin-3-ylmethyl)urea], for which, in the assay on A2780 cells [1], the IC50 is 9 nM. Further, the “effect on tumor growth” value in the assay with A2780 cells [2] is reported as “delayed tumor growth”.

On to `COc1cccc(NS(=O)(=O)c2ccc(NC(=O)NCc3cccnc3)cc2)c1C` [3-{4-[(3-methoxy-2-methylphenyl)sulfamoyl]phenyl}-1-(pyridin-3-ylmethyl)urea], for which the figures for the IC50 at NAMPT and in the assay on A2780 cells [1] were 2 nM and 57 nM, respectively. In the assay with A2780 cells [2], the “effect on tumor growth” value is “delayed tumor growth”.

For `COc1cc(Cl)c(C)cc1NS(=O)(=O)c1ccc(NC(=O)NCc2cccnc2)cc1` [3-{4-[(4-chloro-2-methoxy-5-methylphenyl)sulfamoyl]phenyl}-1-(pyridin-3-ylmethyl)urea], the concentration for half-maximal inhibition (IC50) was 1 nM at NAMPT and 6 nM with A2780 cells [1]. In the assay with A2780 cells [2], the “effect on tumor growth” value is listed as “tumor stasis”.

Regarding `O=C(NCc1cccnc1)Nc1ccc(S(=O)(=O)c2ccc(F)cc2)cc1` [3-{4-[(4-fluorobenzene)sulfonyl]phenyl}-1-(pyridin-3-ylmethyl)urea], the IC50 on NAMPT came to 4 nM; in the assay with A2780 cells [1] it was 171 nM. Also, the “effect on tumor growth” value with A2780 cells [2] is on record as “delayed tumor growth”.

With `COc1ccc(Cl)cc1NS(=O)(=O)c1ccc(NC(=O)NCc2cccnc2)cc1` [3-{4-[(5-chloro-2-methoxyphenyl)sulfamoyl]phenyl}-1-(pyridin-3-ylmethyl)urea], the IC50 on NAMPT was 0.9 nM; in the assay on A2780 cells [1] it was 3 nM. In the assay with A2780 cells [2], the “effect on tumor growth” value was “delayed tumor growth”.

As to `O=C(NCc1ccc2nccn2c1)Nc1ccc(S(=O)(=O)N2CCC(N3CCOCC3)CC2)cc1` [3-{imidazo[1,2-a]pyridin-6-ylmethyl}-1-{4-[4-(morpholin-4-yl)piperidine-1-sulfonyl]phenyl}urea], the IC50 at NAMPT was 4 nM; in the assay with A2780 cells [1], 5 nM. Further, the “effect on tumor growth” value with A2780 cells [2] is recorded as “delayed tumor growth”.

For `O=C(NCc1ccc2nccn2c1)c1ccc(S(=O)(=O)N2CC3CCC(C2)O3)cc1` [N-{imidazo[1,2-a]pyridin-6-ylmethyl}-4-{8-oxa-3-azabicyclo[3.2.1]octane-3-sulfonyl}benzamide], the IC50 on NAMPT is 109 nM; in the assay with A2780 cells [1], 27.1 nM.

`O=C(NCc1ccc2nccn2c1)c1ccc(S(=O)(=O)c2cccc(OC(F)(F)F)c2)cc1` [N-{imidazo[1,2-a]pyridin-6-ylmethyl}-4-{[3-(trifluoromethoxy)benzene]sulfonyl}benzamide]: the IC50 at NAMPT was 139 nM; in the assay on A2780 cells [1], 1.8 nM.

Regarding `O=C(NCc1ccc2nccn2c1)c1ccc(S(=O)(=O)Nc2cccc(OC(F)(F)F)c2)cc1` [N-{imidazo[1,2-a]pyridin-6-ylmethyl}-4-{[3-(trifluoromethoxy)phenyl]sulfamoyl}benzamide], the IC50 on NAMPT stood at 467 nM; in the assay with A2780 cells [1], 8.58 nM.

On to `O=C(NCc1ccc2nccn2c1)c1ccc(S(=O)(=O)c2cccc(C(F)(F)F)c2)cc1` [N-{imidazo[1,2-a]pyridin-6-ylmethyl}-4-{[3-(trifluoromethyl)benzene]sulfonyl}benzamide], for which the IC50 at NAMPT came out at 7.03 nM; in the assay with A2780 cells [1], 4.33 nM.

As for `CC(C)(C)OC(=O)Nc1ccc(CNC(=O)Nc2ccc(S(=O)(=O)N3CCCCC3)cc2)cn1` [tert-butylN-{5-[({[4-(piperidine-1-sulfonyl)phenyl]carbamoyl}amino)methyl]pyridin-2-yl}carbamate], the IC50 at NAMPT stood at 3140 nM; in the assay on A2780 cells [1], 9780 nM.

(Values after US11279687B2, “Compounds and compositions for the inhibition of NAMPT” (Valo Health, Inc., priority 2010, dated 2022).)
